# Results: the supplement of paper PMC10307832
# Compound: CN(C/C=C/C1=CC=C(C=C1)Cl)CC2=CC=CC=C2N(CCO)S(=O)(=O)C3=CC=C(C=C3)OC [KN-93]
# Experiment: relative viability (nuclei count vs DMSO), 5 days (fraction); higher = more cells survive
# Method in brief: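 Five library-drug doses, separated by factors of √10, were pinned into 1536-well plates holding lung cancer cell lines after an overnight stay at 37 °C. Cells were fixed, permeabilised and Hoechst-stained in one step after 5 days without medium change, then imaged at 4×. Viability compares treated-well with vehicle-well nuclei, counted in MetaXpress, as a median across plates. Passing plates had control CV below 25% and at least one doubling.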
Cell Line,relative viability (0.08 µM),relative viability (0.253 µM),relative viability (2.53 µM),relative viability (8 µM)
201T,1.03,0.85,0.958,0.684
A549,0.79,1.06,1.26,0.553
A-427,1.03,1.21,0.976,0.531
ABC-1,0.999,0.99,0.773,0.312
BEN,0.881,0.969,1.08,0.688
CAL-12T,1.09,0.983,1.09,0.744
COR-L23,0.848,1.09,1.08,0.665
COR-L 105,1.02,0.932,0.808,0.682
ChaGo-K-1,0.887,1.14,0.999,0.72
EKVX,0.839,0.768,1.04,0.691
EMC-BAC-2,1.05,1.04,1.08,0.794
EPLC-272H,0.899,0.965,0.92,0.59
H3255,1.03,0.992,0.969,0.666
HARA,0.871,0.943,0.827,0.565
HCC-15,0.862,1.03,1.08,0.893
HCC-44,1.02,0.912,1.12,0.764
HCC-78,0.941,0.828,1.04,0.744
HCC-366,0.835,1.1,1.11,0.863
HCC-827,1.08,1.05,1.05,0.851
HOP-62,1.06,1.07,1.17,0.733
IA-LM,0.896,0.948,1.47,0.875
LC-2-ad,0.965,1.16,0.995,0.725
LCLC-97TM1,0.975,1.29,1.09,0.601
LCLC-103H,0.869,1.14,0.945,0.812
LK-2,1.07,1.17,1.37,0.846

Cell Line,relative viability (0.08 µM),relative viability (0.253 µM),relative viability (2.53 µM),relative viability (8 µM)
LOU-NH91,0.988,0.834,0.963,0.842
LU99A,0.953,0.951,1.01,0.74
LXF-289,0.942,1.07,1.02,0.828
NCI-H23,0.997,1.18,1.02,0.56
NCI-H322M,0.872,0.941,0.959,0.768
NCI-H358,0.834,1.04,0.916,0.539
NCI-H441,0.709,1.14,1.3,0.731
NCI-H460,0.821,1.06,1.03,0.652
NCI-H520,0.91,1.05,1.14,0.815
NCI-H522,1.04,0.986,1.04,0.783
NCI-H596,0.913,1.15,0.941,0.5
NCI-H647,0.985,1.25,1.01,0.813
NCI-H650,1.01,1.1,1.11,0.598
NCI-H661,0.938,1.02,0.968,0.583
NCI-H727,1.03,0.833,1.02,0.649
NCI-H838,0.935,0.883,1.02,0.908
NCI-H1355,0.834,0.891,1.06,0.724
NCI-H1395,0.965,0.969,0.914,0.571
NCI-H1437,1.03,1.09,0.895,0.584
NCI-H1650,0.796,0.808,0.941,0.569
NCI-H1651,0.932,1.07,1.09,0.865
NCI-H1666,0.969,0.921,0.995,0.875
NCI-H1703,0.871,0.89,0.841,0.459
NCI-H1734,0.942,1.15,1.14,0.668
NCI-H1755,0.915,1.03,1.03,0.758

Cell Line,relative viability (0.08 µM),relative viability (0.253 µM),relative viability (2.53 µM),relative viability (8 µM)
NCI-H1792,0.783,0.83,0.948,0.703
NCI-H1793,0.742,0.984,1.11,0.264
NCI-H1915,0.952,1.24,0.993,0.947
NCI-H1944,0.885,0.885,0.942,0.803
NCI-H1975,0.886,0.942,0.945,0.706
NCI-H1993,0.973,0.921,1.04,0.772
NCI-H2009,1.01,1.05,0.922,0.603
NCI-H2023,0.906,1.01,1.08,0.534
NCI-H2085,0.951,1.01,1.05,0.81
NCI-H2087,0.788,1.13,1.12,0.533
NCI-H2126,0.96,0.887,1.08,0.902
NCI-H2170,0.761,1.03,1.01,0.676
NCI-H2228,0.904,1.27,1.41,0.711
NCI-H2342,0.911,0.959,0.977,0.818
NCI-H2347,1.03,1.11,1.08,0.797
NCI-H2405,1.03,1.02,1.03,0.728
NCI-H3122,0.972,1.02,1.07,0.931
PC-3 [JPC-3],1,1.11,1.01,0.866
PC-14,0.943,1.04,1.2,0.92
RERF-LC-KJ,0.915,1.05,0.967,0.693
SK-LU-1,0.8,1.26,1.16,0.759
SK-MES-1,0.888,0.981,1.07,0.766
SW 900,0.9,0.704,1,0.508
SW 1573,0.862,1.13,1.02,0.514
UMC-11,0.903,1.14,1.14,0.374
